The values below come from patent US12370463B2, “Continuous-flow, well mixed, microfluidic crystallization device for screening polymorphs, morphologies and crystallization kinetics at controlled supersaturation” (THE BOARD OF TRUSTEES OF THE UNIVERSITY OF ILLINOIS, priority 2019, dated 2025).

Assay type in all cases: physicochemical
Data set [1] is described as follows: Antisolvent crystallization of o-ABA in the microfluidic mixer, merged and separated inlet designs. The source says: The crystals were formed at room temperature using ethanol as solvent and water as antisolvent. The microfluidic system was configured to have a cyclone-shaped geometry.
The microfluidic device was placed on the temperature-controlled stage of the optical microscope (Olympus BX53M, Olympus America Inc.). The o-ABA dissolved in ethanol and pure water was pumped separately into the microfluidic device using programmed syringe pumps (NE-4000, New Era Pump System Inc.). The flow rates of the o-ABA-ethanol solution and pure water were adjusted to achieve the desired supersaturations (S=1.2, 1.9, and 2.5), which were determined using the solubility curve of form I of o-ABA crystals. The inlets of the microfluidic device were connected with one-way check valves to avoid backflow from the mixer. The time-lapse images of the crystallization compartment were recorded using a built-in color camera (LC 30, Olympus America Inc.) of the optical microscope under the reflected light mode, which are also processed using MATLAB (MATLAB 9.3, The MathWorks Inc.) to measure growth rates and particle size distribution. The polymorphs of o-ABA at different supersaturations (S=1.2, 1.9, and 2.5) were identified using (i) distinct morphological features, such as form I having a prismatic morphology whereas form II has a needle-like morphology, and (ii) X-ray diffraction (XRD) experiments on a Bruker DISCOVER diffractometer with Cu Kα radiation.
The antisolvent crystallization of o-ABA was studied with a merged inlet design (FIG. 5) and results were compared with a separated inlet design. FIG. 11, panels A-H show the micrographs of the samples obtained from antisolvent crystallization of o-ABA in the ethanol-water mixture at two different supersaturations (S=1.2 and S=1.9). The relative relationship between the form and morphology of o-ABA allows for instant detection of each polymorph with the in-situ analysis.

Data set [2] in a line: Polymorph and morphology screening of L-histidine by antisolvent crystallization in the continuous-flow multi-well microfluidic mixer. As to conditions: for polymorphic form obtained: water solvent, ethanol antisolvent, room temperature. Here is the method:
The L-histidine crystals were formed at room temperature with water as the solvent and ethanol as the antisolvent, wherein the microfluidic system was configured to have a cyclone-shaped geometry.
The multi-well microfluidic mixer device was placed on a temperature-controlled stage of the optical microscope (Olympus BX53M, Olympus America Inc.). A saturated solution of L-histidine in water was prepared for the solubility measurement experiment at room temperature.
Eight different syringes were filled with solutions of L-histidine in the water at known concentrations as the source of solvent streams and the other eight syringes were filled with ethanol as antisolvent streams. Syringes were then inserted into 4 programmed syringe pumps (NE-4000, New Era Pump System Inc.). Inlets were connected to one-way microfluidic check valves to prevent backflow inside the channels.
All the microscopic images were recorded with a built-in color camera (LC 30, Olympus America Inc.) using reflected light mode. Capturing time-lapsed images and the growth rate analysis was performed for different samples. Further, these images were processed through MATLAB (MATLAB 9.3, The MathWorks Inc.) for form percentage measurements. L-histidine has two polymorphic form with different crystal habits reported in the literature.
After benchmarking the merged inlet geometry and observing the consistency between the two discussed geometry, the multiwell screening system 10 generally shown in FIG. 4 and using the eight microfluidic chambers 100 having the merged inlet geometry of FIG. 5 was used to perform a parallel screening of L-histidine.
(§1) With eight different microfluidic mixers accommodated on a single chip, eight different supersaturations were studied for polymorph and morphology screening of L-histidine. The results of the continuous flow microfluidic crystallizer were further compared with a batch 96 well plate system with single injection of the solutions in a 96 well plate system. Supersaturation adjustments were done by either changing the initial concentration of the API solution and maintaining a constant ratio for the solvent and antisolvent (1:1) or varying the ratios of two mixing streams for constant initial concentration of API in the solvent. Ratios of solvent and antisolvent were controlled by controlling the flowrates of each stream, respectively.
L-histidine with the two polymorphic forms of form A (stable) and form B (metastable) was selected for the parallel screening. The disclosed microfluidic system provides for the instantaneous, in-situ analysis of the polymorphic change. The studied supersaturations were divided into three regions of low, medium and high supersaturations to understand the effect of the supersaturation ratio on the polymorphic form ratios. […]

Data set [3] in a line: Polymorph and morphology screening of L-histidine in a batch 96 well plate, single injection.
Source text: as §1
A low supersaturation degree existed in the wells D, C, and H, where supersaturation was respectively 1.74, 1.14 and 1.15. For a medium range of the supersaturations, well B with S=2.28 and well G with S=2 were evaluated. The other three remaining wells, A, E and F represents the high supersaturation range with S=2.57, […], 3.14 respectively. Identical supersaturations for wells A to H were applied to a batch 96 well plate and optical images were collected after 5 and 30 minutes and shown in the micrographs A2 to H2 and A4 to H4.
In order to measure the growth rate for polymorphs of L-histidine at different supersaturations, time-lapsed images of each sample were taken each 60, 120 or 300 seconds after the crystals were first observed within the crystallization zone. […] To confirm the crystal faces, the crystallography of the polymorph B was imported into WINXMORPH and 3 final models were simulated for existing form B in the samples. The growth rate measurements of the form A crystals, however was done by measuring the distance between the two longest faces due to the significant aspect ratio of the two dominant faces of this crystal form. Using MATLAB (MATLAB 9.3, The MathWorks Inc.) the ratio of the polymorphic form A was measured for the eight samples in both continuous flow crystallizer as well as the batch 96 well plate system. […]

Turning to `Nc1ccccc1C(=O)O` [o-ABA, o-aminobenzoic acid], the polymorphic form obtained result in data set [1] (S=1.9, merged inlets geometry) is listed as “metastable form II was obtained”; in data set [1] (lower supersaturations, ethanol-water mixture) it was “crystals of polymorphic form I are obtained”. Moreover, the “polymorphic transformation during the experiment” value in data set [1] (S=1.9, merged inlets geometry, constant supersaturation) was “did not transform to the stable form”.
On to `N[C@@H](Cc1c[nH]cn1)C(=O)O` [L-histidine], for which the crystal size distribution entry is “more uniform and have a narrower size distribution” in data set [2] (continuous microfluidic mixer); “wide range of size distribution” in data set [3] (batch 96 well plate). For the same molecule, the “growth rates of crystals at similar supersaturation” value in data set [2] (continuous microfluidic mixer, time-lapsed images) is “almost constant”. The polymorphic form obtained result in data set [2] (supersaturations below 2.3 (low and medium ranges)) is “a mixture of forms A and B”; in data set [2] (supersaturations higher than 2.3), “only crystallizes in form B”; in data set [3] (high supersaturation, batch 96 well plate) it was “a mixture of both polymorphic forms”. In addition, the “growth rates of crystals over the time of the measurements” value in data set [3] (identical samples in the batch system) was “decrease significantly”.
